Source: US20070128217A1 (priority 2003, published 2007)

How the values were obtained:
[1] = tested on: rabbit serum obtained by immunizing a rabbit with the SARS-CoV strain Frankfurt 1; format: binding; design: Binding of a rabbit serum to linear peptides / Binding of a rabbit serum to looped peptides / Rabbit serum linear peptides / Rabbit serum looped peptides / Binding of a rabbit serum to linear peptides of protein N of SARS-CoV Urbani (Rabbit serum linear peptides) / Binding of a rabbit serum to looped/cyclic peptides of protein N of SARS-CoV Urbani (Rabbit serum looped peptides): unit not given here
[2] = tested on: control sera (pooled serum of ten healthy LUMC hospital workers; commercial negative donor pooled serum from the Dutch bloodbank); format: binding, human; design: Binding of Control serum LUMC to linear peptides / Binding of Control serum Blood-bank to linear peptides / Binding of Control serum LUMC to looped peptides / Binding of Control Serum Blood-Bank to Looped peptides / Binding of Control serum LUMC to linear peptides of the protein M of SARS-CoV Urbani / Binding of Control serum Blood-bank to linear peptides of the protein M of SARS-CoV Urbani / Binding of Control serum LUMC to looped peptides of the protein M of SARS-CoV Urbani / Binding of Control Serum Blood-Bank to Looped peptides of the protein M of SARS-CoV Urbani: unit not given here

TDHAGSNDNIALLVQ
Rabbit serum linear peptides [1]: 0.1
Rabbit serum looped peptides [1]: 0.2
Binding of Control Serum Blood-Bank to Looped peptides of the protein M of SARS-CoV Urbani [2]: 1.0
Binding of Control serum Blood-bank to linear peptides of the protein M of SARS-CoV Urbani [2]: 0.7
Binding of Control serum LUMC to linear peptides of the protein M of SARS-CoV Urbani [2]: 1.0
Binding of Control serum LUMC to looped peptides of the protein M of SARS-CoV Urbani [2]: 1.0

TFFIFNKLVKDPPNV
Binding of a rabbit serum to linear peptides [1]: 0.1
Binding of a rabbit serum to looped peptides [1]: 0.5
Binding of Control Serum Blood-Bank to Looped peptides [2]: 0.6
Binding of Control serum Blood-bank to linear peptides [2]: 0.7
Binding of Control serum LUMC to linear peptides [2]: 0.6
Binding of Control serum LUMC to looped peptides [2]: 0.6

TINCQDPAGGALIAR
Rabbit serum linear peptides [1]: 0.6
Rabbit serum looped peptides [1]: 0.7
Binding of Control Serum Blood-Bank to Looped peptides [2]: 1.3
Binding of Control serum Blood-bank to linear peptides [2]: 1.0
Binding of Control serum LUMC to linear peptides [2]: 0.6
Binding of Control serum LUMC to looped peptides [2]: 1.0

TMVQTCTPNVTINCQ
Rabbit serum linear peptides [1]: 0.5
Rabbit serum looped peptides [1]: 0.4
Binding of Control Serum Blood-Bank to Looped peptides [2]: 0.9
Binding of Control serum Blood-bank to linear peptides [2]: 0.7
Binding of Control serum LUMC to linear peptides [2]: 0.7
Binding of Control serum LUMC to looped peptides [2]: 0.7

TTVLLKEPCPSGTYE
Rabbit serum linear peptides [1]: 0.4
Rabbit serum looped peptides [1]: 0.5
Binding of Control Serum Blood-Bank to Looped peptides [2]: 0.9
Binding of Control serum Blood-bank to linear peptides [2]: 0.9
Binding of Control serum LUMC to linear peptides [2]: 0.9
Binding of Control serum LUMC to looped peptides [2]: 1.0

TVLLKEPCPSGTYEG
Rabbit serum linear peptides [1]: 0.2
Rabbit serum looped peptides [1]: 0.2
Binding of Control Serum Blood-Bank to Looped peptides [2]: 0.7
Binding of Control serum Blood-bank to linear peptides [2]: 0.7
Binding of Control serum LUMC to linear peptides [2]: 0.8
Binding of Control serum LUMC to looped peptides [2]: 0.8

VKDPPNVQIHTIDGS
Binding of a rabbit serum to linear peptides [1]: 0.1
Binding of a rabbit serum to looped peptides [1]: 0.5
Binding of Control Serum Blood-Bank to Looped peptides [2]: 0.5
Binding of Control serum Blood-bank to linear peptides [2]: 0.4
Binding of Control serum LUMC to linear peptides [2]: 0.4
Binding of Control serum LUMC to looped peptides [2]: 0.6

VKIDNASPASTVHAT
Binding of a rabbit serum to linear peptides [1]: 0.2
Binding of a rabbit serum to looped peptides [1]: 0.3
Binding of Control Serum Blood-Bank to Looped peptides [2]: 0.5
Binding of Control serum Blood-bank to linear peptides [2]: 0.7
Binding of Control serum LUMC to linear peptides [2]: 0.7
Binding of Control serum LUMC to looped peptides [2]: 0.6

VLKTMSLYMAISPKF
Binding of a rabbit serum to linear peptides [1]: 0.3
Binding of a rabbit serum to looped peptides [1]: 0.5
Binding of Control Serum Blood-Bank to Looped peptides [2]: 0.7
Binding of Control serum Blood-bank to linear peptides [2]: 0.9
Binding of Control serum LUMC to linear peptides [2]: 0.5
Binding of Control serum LUMC to looped peptides [2]: 0.6

VRGTTVLLKEPCPSG
Rabbit serum linear peptides [1]: 0.4
Rabbit serum looped peptides [1]: 0.4
Binding of Control Serum Blood-Bank to Looped peptides [2]: 0.8
Binding of Control serum Blood-bank to linear peptides [2]: 0.8
Binding of Control serum LUMC to linear peptides [2]: 1.0
Binding of Control serum LUMC to looped peptides [2]: 0.9

VRQLFKPLTKKNYSE
Rabbit serum linear peptides [1]: 0.4
Rabbit serum looped peptides [1]: 2.2
Binding of Control Serum Blood-Bank to Looped peptides of the protein X3 of SARS-CoV Urbani [2]: 0.9
Binding of Control serum Blood-bank to linear peptides of the protein X3 of SARS-CoV Urbani [2]: 0.9
Binding of Control serum LUMC to linear peptides of the protein X3 of SARS-CoV Urbani [2]: 0.7
Binding of Control serum LUMC to looped peptides of the protein X3 of SARS-CoV Urbani [2]: 0.7

VTGGIAIAMACIVGL
Rabbit serum linear peptides [1]: 0.3
Rabbit serum looped peptides [1]: 0.4
Binding of Control Serum Blood-Bank to Looped peptides of the protein M of SARS-CoV Urbani [2]: 0.7
Binding of Control serum Blood-bank to linear peptides of the protein M of SARS-CoV Urbani [2]: 1.1
Binding of Control serum LUMC to linear peptides of the protein M of SARS-CoV Urbani [2]: 1.3
Binding of Control serum LUMC to looped peptides of the protein M of SARS-CoV Urbani [2]: 0.8

VTINCQDPAGGALIA
Rabbit serum linear peptides [1]: 0.5
Rabbit serum looped peptides [1]: 0.0
Binding of Control Serum Blood-Bank to Looped peptides [2]: 0.5
Binding of Control serum Blood-bank to linear peptides [2]: 0.8
Binding of Control serum LUMC to linear peptides [2]: 0.6
Binding of Control serum LUMC to looped peptides [2]: 0.5

WVTGGIAIAMACIVG
Rabbit serum linear peptides [1]: 0.4
Rabbit serum looped peptides [1]: 0.2
Binding of Control Serum Blood-Bank to Looped peptides of the protein M of SARS-CoV Urbani [2]: 0.8
Binding of Control serum Blood-bank to linear peptides of the protein M of SARS-CoV Urbani [2]: 0.8
Binding of Control serum LUMC to linear peptides of the protein M of SARS-CoV Urbani [2]: 0.4
Binding of Control serum LUMC to looped peptides of the protein M of SARS-CoV Urbani [2]: 0.9

YDANYFVCWHTHNYD
Binding of a rabbit serum to linear peptides [1]: 0.1
Binding of a rabbit serum to looped peptides [1]: 0.4
Binding of Control Serum Blood-Bank to Looped peptides [2]: 0.3
Binding of Control serum Blood-bank to linear peptides [2]: 0.7
Binding of Control serum LUMC to linear peptides [2]: 0.7
Binding of Control serum LUMC to looped peptides [2]: 0.4

YHYQECVRGTTVLLK
Rabbit serum linear peptides [1]: 1.7
Rabbit serum looped peptides [1]: 0.6
Binding of Control Serum Blood-Bank to Looped peptides [2]: 0.7
Binding of Control serum Blood-bank to linear peptides [2]: 0.8
Binding of Control serum LUMC to linear peptides [2]: 0.7
Binding of Control serum LUMC to looped peptides [2]: 0.8

YKLNTDHAGSNDNIA
Rabbit serum linear peptides [1]: 0.1
Rabbit serum looped peptides [1]: 0.1
Binding of Control Serum Blood-Bank to Looped peptides of the protein M of SARS-CoV Urbani [2]: 0.6
Binding of Control serum Blood-bank to linear peptides of the protein M of SARS-CoV Urbani [2]: 0.6
Binding of Control serum LUMC to linear peptides of the protein M of SARS-CoV Urbani [2]: 0.7
Binding of Control serum LUMC to looped peptides of the protein M of SARS-CoV Urbani [2]: 0.6

YQIGGYSEDRHSGVK
Binding of a rabbit serum to linear peptides [1]: 0.1
Binding of a rabbit serum to looped peptides [1]: 0.5
Binding of Control Serum Blood-Bank to Looped peptides [2]: 0.3
Binding of Control serum Blood-bank to linear peptides [2]: 0.3
Binding of Control serum LUMC to linear peptides [2]: 0.4
Binding of Control serum LUMC to looped peptides [2]: 0.3

YSRVKNLNSSEGVPD
Binding of a rabbit serum to linear peptides [1]: 0.3
Binding of a rabbit serum to looped peptides [1]: 0.0
Binding of Control Serum Blood-Bank to Looped peptides [2]: 0.4
Binding of Control serum Blood-bank to linear peptides [2]: 0.6
Binding of Control serum LUMC to linear peptides [2]: 0.8
Binding of Control serum LUMC to looped peptides [2]: 0.8

YVYSRVKNLNSSEGV
Binding of a rabbit serum to linear peptides [1]: 1.2
Binding of a rabbit serum to looped peptides [1]: 0.5
Binding of Control Serum Blood-Bank to Looped peptides [2]: 0.9
Binding of Control serum Blood-bank to linear peptides [2]: 0.8
Binding of Control serum LUMC to linear peptides [2]: 0.6
Binding of Control serum LUMC to looped peptides [2]: 0.8

YYKLGASQRVGTDSG
Rabbit serum linear peptides [1]: 0.1
Rabbit serum looped peptides [1]: 0.0
Binding of Control Serum Blood-Bank to Looped peptides of the protein M of SARS-CoV Urbani [2]: 0.7
Binding of Control serum Blood-bank to linear peptides of the protein M of SARS-CoV Urbani [2]: 1.0
Binding of Control serum LUMC to linear peptides of the protein M of SARS-CoV Urbani [2]: 0.8
Binding of Control serum LUMC to looped peptides of the protein M of SARS-CoV Urbani [2]: 0.7
